Entries after “also recorded” stand apart in the source; their conditions may differ. Each block holds one compound with its values, some of them ahead of it.
How the values were obtained:
Assay type in all cases: physicochemical
[1] = Stressing under various relative humidities (RH), solid form by XRPD; conditions: for RH stability: solid form after exposure, 58% RH / RH stability: solid form after exposure, 75% RH: duration not printed in Table 1, am = amorphous
Text: The jar was sealed and stored at either ambient temperature or in an oven at elevated temperature.

[2] = Automated moisture sorption/desorption (moisture balance); conditions: for Post-moisture sorption/desorption XRPD form: sorption from 5% RH to 95% RH, desorption from 95% RH to 5% RH; for wt loss from 95 to 5% RH: desorption 95 to 5% RH; for Hygroscopicity: moisture balance; for wt gain from 5 to 95% RH: sorption 5 to 95% RH
Procedure: Moisture sorption/desorption data were collected on a VTI SGA-100 Vapor Sorption Analyzer. Sorption and desorption data were collected over a range of 5% to 95% relative humidity (RH) at 10% RH intervals under a nitrogen purge. Samples were not dried prior to analysis. Equilibrium criteria used for analysis were less than 0.0100% weight change in 5 minutes, with a maximum equilibration time of 3 hours if the weight criterion was not met. Data were not corrected for the initial moisture content of the samples. NaCl and PVP were used as calibration standards.

[3] = Rifaximin drying experiments, solid form by XRPD
[4] = Dynamic vapor sorption/desorption (DVS) of amorphous preparations
Procedure: Based on the data, relative humidity stressing studies of the two amorphous materials at 40° C./75% RH are recommended.

[5] = Vapor stressing / vapor diffusion of amorphous rifaximin; conditions: for Form obtained in vapor diffusion experiment: water as antisolvent
Procedure: (§1) Vapor stressing experiments were done on amorphous material from two preparations: lyophilization from p-dioxane:water 1:1 and crash precipitation from ethyl acetate with heptane. […] The majority of the stressed samples appeared as clear red solutions after 6 days. Those solutions were placed in vials of antisolvent for vapor diffusion. Dry and wet milling experiments were conducted on amorphous materials from the two preparations mentioned above. Amorphous materials were recovered from the dry milling experiments.

[6] = Milling experiments for amorphous materials; conditions: 10 min. at 30 Hz, scraped sides, 10 min. at 30 Hz (dry milling)
Procedure: as §1
A solid sample of rifaximin was charged to a milling container with a milling ball. Samples were milled for 5 or 15 minute intervals (2×5 minutes, 2×15 minutes, and 3×15 minutes) at 30 Hz using a Retsch MM200 mixer mill. Solids were scraped from the sides of the vial after each interval.

[7] = first sample of Table 3 (by elimination: lyophilization in p-dioxane:water 1:1)
[8] = second sample of Table 3 (crash precipitation from ethyl acetate with heptane)

Compound: CO[C@H]1/C=C/O[C@@]2(C)Oc3c(C)c(O)c4c(O)c(c5c(nc6cc(C)ccn65)c4c3C2=O)NC(=O)/C(C)=C\C=C\[C@H](C)[C@H](O)[C@@H](C)[C@@H](O)[C@@H](C)[C@H](OC(C)=O)[C@@H]1C [Form α, reference compound]
Final Form (XRPD) ([1]; P2O5, 4 days): α dry

Compound: CO[C@H]1/C=C/O[C@@]2(C)Oc3c(C)c(O)c4c(O)c(c5c(nc6cc(C)ccn65)c4c3C2=O)NC(=O)/C(C)=C\C=C\[C@H](C)[C@H](O)[C@@H](C)[C@@H](O)[C@@H](C)[C@H](OC(C)=O)[C@@H]1C [Form α-dry]
Post-moisture sorption/desorption XRPD form ([2]; listed as α dry): α dry
XRPD Form after drying ([3]; vac oven 50° C., 1 day): α dry
XRPD Form after drying ([3]; vac oven 50° C., 1 day, vac oven 60° C.): α dry
XRPD Form after drying ([3]; vac oven 60-65° C., 3 days, listed as α dry): α dry
Solid form after vacuum drying ([3]; vacuum dried (Table 1 column), listed as α dry): α dry
Final Form (XRPD) ([1]; 33% RH, 2 days): α
Final Form (XRPD) ([1]; 33% RH, 7 days): α
Final Form (XRPD) ([1]; 43% RH, 4 days): α + β
Final Form (XRPD) ([1]; 43% RH, 11 days): β + (α)
Final Form (XRPD) ([1]; 58% RH, 2 days): β
RH stability: solid form after exposure, 58% RH ([1]; 58% RH, listed as α dry): β
Final Form (XRPD) ([1]; 75% RH, 2 days): β
RH stability: solid form after exposure, 75% RH ([1]; 75% RH, listed as α dry): β
Final Form (XRPD) ([1]; 94% RH, 2 days): β

Compound: CO[C@H]1/C=C/O[C@@]2(C)Oc3c(C)c(O)c4c(O)c(c5c(nc6cc(C)ccn65)c4c3C2=O)NC(=O)/C(C)=C\C=C\[C@H](C)[C@H](O)[C@@H](C)[C@@H](O)[C@@H](C)[C@H](OC(C)=O)[C@@H]1C [Form β-1]
Final Form (XRPD) ([1]; 33% RH, 4 days): β
Final Form (XRPD) ([1]; 58% RH, 3 days): β + peak @4.87 °2θ
RH stability: solid form after exposure, 58% RH ([1]; 58% RH, listed as β-1): β + pk
Final Form (XRPD) ([1]; 75% RH, 3 days): β
RH stability: solid form after exposure, 75% RH ([1]; 75% RH, listed as β-1): β
Final Form (XRPD) ([1]; 94% RH, 3 days): β
RH stability: solid form after exposure, 94% RH ([1]; 94% RH, duration not given): β

Compound: CO[C@H]1/C=C/O[C@@]2(C)Oc3c(C)c(O)c4c(O)c(c5c(nc6cc(C)ccn65)c4c3C2=O)NC(=O)/C(C)=C\C=C\[C@H](C)[C@H](O)[C@@H](C)[C@@H](O)[C@@H](C)[C@H](OC(C)=O)[C@@H]1C [Form β-2]
XRPD Form after drying ([3]; vac oven, 40° C., 1 day, listed as β-2): α dry
Solid form after vacuum drying ([3]; vacuum dried (Table 1 column), listed as β-2): α dry
Final Form (XRPD) ([1]; under N2 atmosphere, 20% RH, 3 days): α^d and α

Compound: CO[C@H]1/C=C/O[C@@]2(C)Oc3c(C)c(O)c4c(O)c(c5c(nc6cc(C)ccn65)c4c3C2=O)NC(=O)/C(C)=C\C=C\[C@H](C)[C@H](O)[C@@H](C)[C@@H](O)[C@@H](C)[C@H](OC(C)=O)[C@@H]1C [Form γ, reference compound]
wt loss from 95 to 5% RH [2]: 11.7%
wt loss upon equilibration at 5% RH [2]: 2.4%
Hygroscopicity [2]: hygroscopic
wt gain from 5 to 95% RH [2]: 10.8%
XRPD Form after drying ([3]; vac oven, ambient, 1 day): remained unchanged

Continued, in another order:

Final Form (XRPD) ([1]; P2O5, 3 days): ε dry
Compound: CO[C@H]1/C=C/O[C@@]2(C)Oc3c(C)c(O)c4c(O)c(c5c(nc6cc(C)ccn65)c4c3C2=O)NC(=O)/C(C)=C\C=C\[C@H](C)[C@H](O)[C@@H](C)[C@@H](O)[C@@H](C)[C@H](OC(C)=O)[C@@H]1C [Form δ, reference compound]

XRPD Form after drying ([3]; vac oven 60-65° C., 3 days, listed as ε): ε dry
Compound: CO[C@H]1/C=C/O[C@@]2(C)Oc3c(C)c(O)c4c(O)c(c5c(nc6cc(C)ccn65)c4c3C2=O)NC(=O)/C(C)=C\C=C\[C@H](C)[C@H](O)[C@@H](C)[C@@H](O)[C@@H](C)[C@H](OC(C)=O)[C@@H]1C [Form ε, reference compound]

XRPD Form after drying ([3]; air dry): γ
XRPD Form after drying ([3]; open vial in hood): γ
XRPD Form after storage ([3]; stored in refrigerator 3 weeks): ζ
XRPD Form after drying ([3]; vac dry): γ + η
XRPD Form after drying ([3]; vac oven, 40° C., 1 day): remained unchanged
XRPD Form after drying ([3]; vac oven, 45° C., 2 days): η
XRPD Form after drying ([3]; vac oven, ambient, 1 day): Form η
XRPD Form after drying ([3]; vac oven, ambient, 1 day, listed as ζ): η
Solid form after vacuum drying ([3]; vacuum dried (Table 1)): η or and γ + η
Final Form (XRPD) ([1]; 43% RH, 3 days): Form γ
Final Form (XRPD) ([1]; 43% RH, 3 days, listed as ζ): γ
Final Form (XRPD) ([1]; 58% RH, 3 days): Form γ-1 (ζ)
Final Form (XRPD) ([1]; 75% RH, 3 days): Form γ-1 (ζ)
Final Form (XRPD) ([1]; stability chamber, 75% RH at 40° C., 1 day): ζ + γ^e
Compound: CO[C@H]1/C=C/O[C@@]2(C)Oc3c(C)c(O)c4c(O)c(c5c(nc6cc(C)ccn65)c4c3C2=O)NC(=O)/C(C)=C\C=C\[C@H](C)[C@H](O)[C@@H](C)[C@@H](O)[C@@H](C)[C@H](OC(C)=O)[C@@H]1C [Form ζ]
Final Form (XRPD) ([1]; 94% RH, 3 days): Form β+γ-1 (ζ); also recorded: Form β30 γ-1 (ζ)

XRPD Form after drying ([3]; vac oven, 40° C., 1 day): remained unchanged
XRPD Form after drying ([3]; vac oven, 40° C., 1 day, listed as η): η
Solid form after vacuum drying ([3]; vacuum dried (Table 1 column), listed as η): η
Compound: CO[C@H]1/C=C/O[C@@]2(C)Oc3c(C)c(O)c4c(O)c(c5c(nc6cc(C)ccn65)c4c3C2=O)NC(=O)/C(C)=C\C=C\[C@H](C)[C@H](O)[C@@H](C)[C@@H](O)[C@@H](C)[C@H](OC(C)=O)[C@@H]1C [Form η]

DVS weight gain from 5-95% RH [4, 7]: 8.364% eight gain from 5-95% RH
DVS weight loss at 5% RH [4, 7]: 0.100% weight loss at 5% RH
DVS weight loss from 95-5% RH [4, 7]: 10.989% weight loss from 95-5% RH
DVS weight loss at 5% RH ([4]; second sample of Table 3 (DSC endo 79/204: crash precipitation from ethyl acetate with heptane)): 1.606% weight loss at 5% RH
DVS weight gain from 5-95% RH [4, 8]: 7.843% weight gain from 5-95% RH
DVS weight loss from 95-5% RH [4, 8]: 9.172% weight loss from 95-5% RH
wt loss from 95 to 5% RH ([2]; listed as Rifaximin Amorphous): 11.3% wt loss from 95 to 5% RH
wt loss upon equilibration at 5% RH ([2]; listed as Rifaximin Amorphous): 0.7% wt loss upon equilibration at 5% RH
Hygroscopicity [2]: hygroscopic
wt gain from 5 to 95% RH ([2]; listed as Amorphous rifaximin): 11.6%
wt gain from 5 to 95% RH ([2]; listed as Rifaximin Amorphous): 11.6% wt gain from 5 to 95% RH
Post-moisture sorption/desorption XRPD form ([2]; listed as Amorphous): amorphous
Post-moisture sorption/desorption XRPD form ([2]; listed as Amorphous rifaximin): amorphous
Post-moisture sorption/desorption XRPD form ([2]; listed as Rifaximin Amorphous): amorphous
Final Form (XRPD) ([1]; 43% RH, 5 days): amorphous
Final Form (XRPD) ([1]; 43% RH, 5 days, listed as Amorphous): amorphous
Final Form (XRPD) ([1]; 43% RH, 5 days, listed as amorphous rifaximin): remained amorphous
Final Form (XRPD) ([1]; 58% RH, 5 days): amorphous
Final Form (XRPD) ([1]; 58% RH, 8 days): remained amorphous
RH stability: solid form after exposure, 58% RH ([1]; 58% RH): am
Final Form (XRPD) ([1]; 75% RH, 2 days, listed as amorphous rifaximin): remained amorphous
Final Form (XRPD) ([1]; 75% RH, 5 days): amorphous
RH stability: solid form after exposure, 75% RH ([1]; 75% RH): am
XRPD Result after stressing ([5]; DCM, VD w/ IPE, 11 days): amorphous
XRPD Result after stressing ([5]; MEK, VD w/ IPE, 11 days): amorphous
Form obtained in vapor diffusion experiment ([5]; methanol): Form β
Form obtained in vapor diffusion experiment ([5]; tetrahydrofuran): Form β
XRPD Result after stressing ([5]; toluene, VS, RT, 6 days, listed as Rifaximin, Amorphous): amorphous
XRPD Result after stressing ([5]; toluene, VS, RT, 6 days, listed as amorphous material): no peaks by XRPD
XRPD Result after stressing ([5]; water, VS, RT, 15 days): amorphous
Compound: CO[C@H]1/C=C/O[C@@]2(C)Oc3c(C)c(O)c4c(O)c(c5c(nc6cc(C)ccn65)c4c3C2=O)NC(=O)/C(C)=C\C=C\[C@H](C)[C@H](O)[C@@H](C)[C@@H](O)[C@@H](C)[C@H](OC(C)=O)[C@@H]1C [amorphous]

XRPD Result after milling [6]: amorphous
Compound: CO[C@H]1/C=C/O[C@@]2(C)Oc3c(C)c(O)c4c(O)c(c5c(nc6cc(C)ccn65)c4c3C2=O)NC(=O)/C(C)=C\C=C\[C@H](C)[C@H](O)[C@@H](C)[C@@H](O)[C@@H](C)[C@H](OC(C)=O)[C@@H]1C [crash amorphous rifaximin]

Hygroscopicity (DVS) ([4]; 5 to 95% relative humidity): moderately hygroscopic
DVS uptake of water (weight gain) ([4]; from 5 to 95% relative humidity): approximately 8%
Crystallization of post-DVS sample ([4]; post-DVS): Crystallization was not observed
Compound: CO[C@H]1/C=C/O[C@@]2(C)Oc3c(C)c(O)c4c(O)c(c5c(nc6cc(C)ccn65)c4c3C2=O)NC(=O)/C(C)=C\C=C\[C@H](C)[C@H](O)[C@@H](C)[C@@H](O)[C@@H](C)[C@H](OC(C)=O)[C@@H]1C [lyophilized amorphous rifaximin]

— patent publication US20110105550A1 (SALIX PHARMACEUTICALS, LTD., priority 2008, published 2011)
